Laboratory results taken from US20250282742A1, “BENZOFURAN DERIVATIVES FOR TARGETING AUTOPHAGY” (Automera PTE. LTD, priority 2024, published 2025).

Biological target: T1, BRD4 in HeLa cells (Homo sapiens, UniProt O60885)
T1 construct: endogenous in cells; host or cells: HeLa
Experiment: BRD4 degradation assay (Western blot, 24 h treatment)
Format: cell-based
Details: doses up to 10 μM
Procedure: HeLa cells were seeded in 6-well plates (700,000 cells) and allowed to adhere overnight. Media was replaced one hour before administering either vehicle (DMSO) or test compounds. After 24 hours of treatment, the media was discarded, and cells were rinsed once with ice-cold 1×PBS before detached from plates with ice-cold RIPA Lysis and Extraction Buffer (Thermo Fisher Scientific) which was supplemented with protease and phosphatase inhibitors. The resulting cell suspensions were transferred to pre-chilled microcentrifuge tubes, incubated on ice for 20 min with intermittent mixing and then centrifuged at 12,000 rpm for 20 min at 4° C. The supernatants were then aspirated slowly and transferred into new tubes kept on ice. The protein concentration in the samples was determined using BCA kit (Thermo Fisher Scientific) as per manufacturer's instructions.
For the BRD4 degradation assay, cell lysates were prepared with RIPA buffer containing 0.25% SDS. These were mixed with 4× Laemmli protein sample buffer (Bio-Rad) supplemented with beta-mercaptoethaol (355 mM). The lysates were then heated at 95° C. for 5 min, and briefly centrifuged for 10-15 seconds.
For p62 oligomerization and LC3 lipidation assays, lysates containing 30 μg of protein and for BRD4 and FKBP12(F36V) degradation assays, lysates containing 20 μg of protein, were loaded slowly into the wells of 4-20% gradient Tris-glycine gels (Bio-Rad). The gels were run at 100V until completion and transferred onto PVDF membranes. Membranes were blocked using 5% milk in TBS-Tween (0.1%) buffer at room temperature for 1 hour. The membranes were incubated with primary antibody in 5% milk-TBST with shaking, overnight at 4° C. […] For the p62 oligomerization assay, the total protein levels were assessed using Ponceau staining (Thermo Fisher Scientific) of PVDF membrane as per recommendation by manufacturer's guidelines.
Imaging was acquired using SuperSignal™ West Pico PLUS Chemiluminescent Substrate (Thermo Fisher Scientific) with iBright Invitrogen FL100 imaging system. Band signal intensity, reflective of protein concentrations, were quantified using Invitrogen™ iBright™ Analysis and Image J software.
To evaluate levels of protein degradation by compounds 100-103, HeLa cells were treated with the corresponding compounds at doses up to 10 μM for 24 hours. The changes in levels of BRD4 and GAPDH (loading control) were assessed by Western blotting, as described in experimental procedures. Results are summarized in Table 11 below, measured by percentage change in BRD4 levels by compound treatment relative to vehicle (DMSO) control.

With `Cc1sc2c(c1C)C(c1ccc(Cl)cc1)=N[C@@H](CC(=O)NCCOCCOCCNCc1ccc3cc(Cc4ccccc4)oc3c1)c1nnc(C)n1-2` [compound 103] the “Degradation (change in BRD4 levels relative to DMSO control)” value was “++ (> 2-fold change in BRD4 levels relative to DMSO control)”.
